What is called melting point is the temperature of the solid-liquid transition. The molecule `CCOP(=O)(Cc1cccc(NC(=O)CCCc2oc(-n3cnc4ccccc43)nc2-c2ccc(Cl)cc2)c1)OCC` showed a melting point of 135 to 136 °C.

Molecule `CCOP(=O)(Cc1ccccc1NC(=O)CCCc1oc(-n2cnc3ccccc32)nc1-c1ccc(Cl)cc1)OCC` had a melting point of 133 to 136 °C.

Take `CCOP(=O)(CCc1ccc(NC(=O)CCCc2oc(-n3cnc4ccccc43)nc2-c2ccc(Cl)cc2)cc1)OCC`: the melting point lay within 116 to 117 °C.

Turning to `CCOP(=O)(Cc1ccc(NC(=O)CCCc2oc(N3CCN(c4ccccn4)CC3)nc2-c2ccc(Cl)cc2)cc1)OCC`, the melting point was in the range of 114 to 116 °C.

Consider `CCOP(=O)(Cc1ccc(NC(=O)CCCc2oc(N3CCN(n4c(=O)[nH]c5ccccc54)CC3)nc2-c2ccc(Cl)cc2)cc1)OCC`, for which the melting point is 205 to 209 °C.

On to `CCOP(=O)(Cc1ccc(NC(=O)CCc2sc(-n3cnc4ccccc43)nc2-c2ccc(Cl)cc2)cc1)OCC`, for which the melting point was 150 to 151 °C.

`CCOP(=O)(Cc1ccc(NC(=O)/C=C/c2sc(-n3cnc4ccccc43)nc2C)cc1)OCC` had a melting point of 150 to 151 °C.

Molecule `CCOP(=O)(Cc1ccc(NC(=O)/C=C/c2sc(-n3cnc4ccccc43)nc2-c2ccccc2)cc1)OCC` returned a melting point of 229 to 230 °C.

`CCOP(=O)(Cc1ccc(NC(=O)CCc2sc(-n3cnc4ccccc43)nc2C(C)C)cc1)OCC` registered a melting point of 171 to 172 °C.

Turning to `CCOP(=O)(Cc1ccc(NC(=O)CCCc2sc(-n3cnc4ccccc43)nc2-c2ccc(Cl)cc2)cc1)OCC`, the melting point is 140 to 141 °C.

As for `CCOP(=O)(Cc1ccc(NC(=O)CCc2oc(-c3cccs3)nc2-c2ccc(Cl)cc2)cc1)OCC`, the melting point is 164 to 165 °C.

Molecule `CCOP(=O)(Cc1ccc(NC(=O)CCCCCc2sc(-n3cnc4ccccc43)nc2-c2ccc(Cl)cc2)cc1)OCC` had a melting point of 149 to 151 °C.

Regarding `CCOP(=O)(Cc1ccc(NC(=O)CCc2oc(-n3nnc4ccccc43)nc2-c2ccc(Cl)cc2)cc1)OCC`, the melting point was in the range of 91 to 92 °C.

Take `CCOP(=O)(Cc1ccc(NC(=O)CCc2sc(N)nc2-c2ccc(Cl)cc2)cc1)OCC`: the melting point was in the range of 177 to 178 °C.

In the case of `CCOP(=O)(Cc1ccc(NC(=O)CCc2sc(NC(=O)c3ccccc3)nc2-c2ccc(Cl)cc2)cc1)OCC`, the melting point is 171 to 172 °C.

Take `CCOP(=O)(Cc1ccc(NC(=O)CCc2sc(NC(=O)CCc3ccccc3)nc2-c2ccc(Cl)cc2)cc1)OCC`: the melting point was in the range of 208 to 209 °C.

Regarding `CCOP(=O)(Cc1ccc(NC(=O)CCc2oc(C)nc2-c2ccc(Cl)cc2)cc1)OCC`, the melting point is 155 to 156 °C.

As for `CCOP(=O)(Cc1ccc(NC(=O)CCc2oc(-n3cnc4ccccc43)nc2-c2ccc(OC)cc2)cc1)OCC`, the melting point lay in the range of 143 to 144 °C.

`CCOP(=O)(Cc1ccc(NC(=O)CCc2oc(-n3cnc4ccccc43)nc2-c2cccc(Cl)c2)cc1)OCC`: the melting point was 98 to 99 °C.

In the case of `CCOP(=O)(Cc1ccc(NC(=O)CCc2oc(-n3cnc4ccccc43)nc2-c2ccc(F)cc2)cc1)OCC`, the melting point fell in the range of 95 to 96 °C.

In turn, `CCOP(=O)(OCC)C(F)(F)c1ccc(NC(=O)CCc2oc(-n3cnc4ccccc43)nc2-c2ccc(Cl)cc2)cc1` returned a melting point of 155 to 156 °C.

For the molecule `CCOP(=O)(Cc1ccc(NC(=O)CCc2oc(-n3ccnc3C)nc2-c2ccc(Cl)cc2)cc1)OCC`, the melting point lay within 158 to 159 °C.

`CCOP(=O)(Cc1ccc(NC(=O)CCc2oc(NCc3ccccc3)nc2-c2ccc(Cl)cc2)cc1)OCC`: the melting point lay within 156 to 157 °C.

Molecule `CCOP(=O)(Cc1ccc(NC(=O)CCc2oc(Sc3ccccn3)nc2-c2ccc(Cl)cc2)cc1)OCC` came in with a melting point of 146 to 147 °C.

As to `CCOP(=O)(Cc1ccc(NC(=O)CCCc2oc(-c3ccccc3)nc2-c2ccc(Cl)cc2)cc1)OCC`, the melting point lay in the range of 152 to 153 °C.

The molecule `CCOP(=O)(Cc1ccc(NC(=O)/C=C/c2oc(-c3ccccc3)nc2-c2ccc(Cl)cc2)cc1)OCC` came in with a melting point of 204 to 206 °C.

The molecule `CCOP(=O)(Cc1ccc(NC(=O)CCc2sc(-c3ccccc3)nc2-c2ccc(Cl)cc2)cc1)OCC` yielded a melting point of 164 to 165 °C.

Source of the values: US7183276B2, “Azole compounds” (Takeda Pharmaceutical Company Limited, priority 2002, dated 2007).
